Test [1] has as its system intact calmodulin. Particulars: cited from earlier work.
In the next test the test system is anti-calmodulin serum. Particulars: one antiserum; vertebrate calmodulin residues 137 to 143; cited from earlier work.
The test system of test [2] is intact calmodulin. Put plainly: Injection of immunogen into laboratory rabbits to elicit antisera against calmodulin. Particulars: merely injecting calmodulin into laboratory rabbits. The format is in vivo. An excerpt:
Using one of the rabbit antisera, we proceeded to test peptide segments encompasssing the entire calmodulin molecule to locate one or more immunoreactive sites in the protein. See Van Eldik, L. J. and Watterson D. M. "Reproducible Production of Antiserum against Vertebrate Calmodulin and Determination of the Immunoreactive Site" Journal of Biological Chemistry Volume 256 (9), pp. 4205-4210 (1981). Upon completion of these studies we proposed than an immunoreactive site of calmodulin is contained in an 18 residue region (residues 127-144) within the COOH-terminal domain of calmodulin.
However, although the minimal immunoreactive heptapeptide site of calmodulin met both of the above requirements, we were unable to produce anti-calmodulin sera when we injected laboratory rabbits with a synthetic heptapeptide corresponding to the immunoreactive site of the protein. […] Van Eldik, et al. "Elucidation of a Minimal Immunoreactive Site of Vertebrate Calmodulin" (cited above).

These results are taken from patent US4716150A, “Synthetic peptides and use thereof in preparing calmodulin antisera” (Vanderbilt University, priority 1985, dated 1987).

Turning to “asparagine-tyrosine-glutamic acid-glutamic acid-phenylalanine-valine-glutamine [synthetic heptapeptide]”, the “reactivity of the elicited antibodies” value in the test with intact calmodulin [1] (antibodies from injected rabbits tested against synthetic heptapeptide and intact calmodulin) is given as “reacted with the synthetic heptapeptide but not with intact calmodulin”. Also, in the test on intact calmodulin [1] (laboratory rabbits injected with synthetic heptapeptide), the “antibody response in rabbits (immunogenicity)” value was “elicited an antibody response”. For the same substance, the “immunoreactivity with anti-calmodulin serum compared with the entire protein” value in the test on anti-calmodulin serum is “as immunoreactive as the entire 148-residue protein”.

Regarding calmodulin, the “anti-calmodulin serum titer after injection” value with intact calmodulin [2] is “inability to develop an anti-calmodulin serum of useful titer”.
